Experimental data from publication PMC12299470, “Selection of an Optimal Metabolic Model for Accurately Predicting the Hepatic Clearance of Albumin-Binding-Sensitive Drugs” (Pharmaceuticals, 2025).
Like-named read-outs stand apart in the source and are kept apart here.

Experiments:
[1] = design: method as in EMBL-EBI database; conditions: ref EMBL-EBI database, cited from earlier work; for HBA: hydrogen-bond acceptor; for HBD: hydrogen-bond donor
[2] = test system: p-glycoprotein; design: method as in El-Kattan et al. [36] and DrugBank; conditions: With / Without; ref El-Kattan et al. [36] and DrugBank; cited from earlier work
[3] = design: method as in PMID 35901930; conditions: fraction unbound in plasma; regression dataset; cited from earlier work
[4] = target: human serum albumin (Homo sapiens, UniProt P02768); experiment: Rapid equilibrium dialysis (RED), fraction unbound at various HSA concentrations; format: in vitro ADME; conditions: drug 1 μg/mL in Krebs buffer, 37 °C, read-out: fraction unbound (fu)
Chain of human serum albumin (P02768 25-609): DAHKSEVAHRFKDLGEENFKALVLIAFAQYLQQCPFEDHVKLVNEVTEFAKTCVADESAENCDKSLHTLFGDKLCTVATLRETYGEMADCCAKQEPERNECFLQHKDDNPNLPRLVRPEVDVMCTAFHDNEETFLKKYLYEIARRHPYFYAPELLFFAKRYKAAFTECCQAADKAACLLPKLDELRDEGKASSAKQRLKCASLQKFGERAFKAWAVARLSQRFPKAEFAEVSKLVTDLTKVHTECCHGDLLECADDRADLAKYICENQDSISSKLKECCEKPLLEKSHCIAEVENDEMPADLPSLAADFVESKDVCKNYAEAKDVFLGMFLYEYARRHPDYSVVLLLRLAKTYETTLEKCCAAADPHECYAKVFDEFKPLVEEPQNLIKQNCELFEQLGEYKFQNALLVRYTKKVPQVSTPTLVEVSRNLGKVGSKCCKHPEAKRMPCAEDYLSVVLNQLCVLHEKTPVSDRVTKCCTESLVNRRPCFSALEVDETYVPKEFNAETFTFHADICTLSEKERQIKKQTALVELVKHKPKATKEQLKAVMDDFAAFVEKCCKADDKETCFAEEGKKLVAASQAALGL
Method: The rapid equilibrium dialysis (RED) apparatus and test inserts were purchased from Thermo Fisher Scientific (Rockford, IL, USA). The unbound fraction of each assessed drug was determined using RED. Briefly, a drug was diluted to 1 μg/mL in Krebs buffer containing different concentrations of HSA. Five hundred microliters of the assessed drug and each of the different HSA concentrations were added to the sample chamber of an insert and 750 μL of blank buffer was added to the adjacent chamber. The loaded inserts were then assembled on a Teflon-based plate.

[5] = test system: isolated perfused rat liver; experiment: Fitting of hepatic clearance models (MWSM, WSM, PTM, DM) to IPRL FH vs fu data
Method: (§1) Under this condition, hepatic availability (FH) served as a clear and practical indicator of CLH. […] Based on the principles of the WSM, Equations (3) and (4) were derived by applying Equations (1) and (2), in conjunction with the concept that CLH equals the liver blood flow multiplied by the extraction ratio. Subsequently, data fitting was performed using these formulas.
(§2) Rosuvastatin consistently aligned with the MWSM predictions throughout the experiment.
(§3) The extraction recovery, calibration curves and retention time of each compound are shown in Table S1, Figures S1 and S2, respectively. All available experimental data were included in the analysis. The formula and experimental data were processed by Prism software v10.4.1 (GraphPad Software, Inc) to generate figures and calculate the degree of fit of different models.

[6] = test system: organic anion-transporting polypeptide; design: method as in El-Kattan et al. [36] and DrugBank; conditions: With / Without; ref El-Kattan et al. [36] and DrugBank; cited from earlier work
[7] = Fitting of hepatic clearance models (MWSM, WSM, PTM, DM) to IPRL FH vs fu data; conditions: male, Sprague-Dawley, rat, isolated perfused rat liver
Method: as §1, §2, §3

[8] = Krebs buffer with 0% HSA, 0% HSA
[9] = Krebs buffer with 0.1% HSA, 0.1% HSA
[10] = Krebs buffer with 2% HSA, 2% HSA
[11] = Krebs buffer with […] HSA, 0.25% HSA

SMILES	HBA [1]	HBD [1]	Aromatic Rings [1]	Heavy Atoms [1]	P-gp [2]	fu p [3]	fraction unbound at 8 h, 1 μg/mL [4, 8]	fraction unbound at 8 h, 1 μg/mL [4, 9]	fraction unbound at 8 h, 1 μg/mL [4, 10]	fraction unbound at 8 h, 1 μg/mL [4, 11]	Optimal Model ([5]; HSA interval 0–2%)	sum of squares, DM ([5]; HSA interval 0–2%)	sum of squares, Modified WSM ([5]; HSA interval 0–2%)	sum of squares, PTM ([5]; HSA interval 0–2%)	sum of squares, WSM ([5]; HSA interval 0–2%)	OATP [6]	also measured
CC(C)c1nc(N(C)S(C)(=O)=O)nc(-c2ccc(F)cc2)c1/C=C/[C@@H](O)C[C@@H](O)CC(=O)O [Rosuvastatin]	9	3	2	33	Without	0.129	0.99	0.9	0.29	0.77	MWSM	1.4550	0.2132	1.0670	1.8440	With	PSA ([1]; polar surface area, in Å2 (unit assumed)): 140.9; fraction unbound at 8 h, 1 μg/mL ([4]; Krebs buffer with 0.375% HSA, 0.375% HSA): 0.65; fraction unbound at 8 h, 1 μg/mL ([4]; Krebs buffer with 0.5% HSA, 0.5% HSA): 0.51; fraction unbound at 8 h, 1 μg/mL ([4]; Krebs buffer with 1% HSA, 1% HSA): 0.42
CN1C(=O)CN=C(c2ccccc2)c2cc(Cl)ccc21 [Diazepam]			2	20													
CNCCC(Oc1ccc(C(F)(F)F)cc1)c1ccccc1 (centres unmarked) [Fluoxetine]							0.99	0.45	0.05	0.4	WSM	0.2062	5.9630	0.2096	0.1154		fraction unbound at 8 h, 1 μg/mL ([4]; Krebs buffer with […] HSA, 0.025% HSA): 0.87
O=C(O)Cc1ccccc1Nc1c(Cl)cccc1Cl [Diclofenac]	3	2	2	19	Without	0.004										Without	fraction unbound [7]: 0.576 to 0.872; Optimal Model ([5]; HSA interval 0–0.01%): MWSM; sum of squares, DM ([5]; HSA interval 0–0.01%): 0.0792; sum of squares, Modified WSM ([5]; HSA interval 0–0.01%): 0.0278; sum of squares, PTM ([5]; HSA interval 0–0.01%): 0.0702; sum of squares, WSM ([5]; HSA interval 0–0.01%): 0.0885; Optimal Model ([5]; HSA interval 0.025–2%): WSM; sum of squares, DM ([5]; HSA interval 0.025–2%): 0.1400; sum of squares, Modified WSM ([5]; HSA interval 0.025–2%): 0.2923; sum of squares, PTM ([5]; HSA interval 0.025–2%): 0.1790; sum of squares, WSM ([5]; HSA interval 0.025–2%): 0.1194; CLint, DM ([5]; male, Sprague-Dawley, rat): 35.94; CLint, PTM ([5]; male, Sprague-Dawley, rat): 27.63; CLint, WSM ([5]; male, Sprague-Dawley, rat): 43.68
